# Assay results as given in US20140094424A1, “MICROBICIDAL COMPOSITIONS AND METHODS OF PRODUCTION USE THEREOF” (priority 2011, published 2014).
# Where two headings read alike, the source gives them in different places.
# Experiments:
# [1] = tested on: Aspergillus glaucus- DMO (Q); assay: MBC (minimum bactericidal concentration) test in Wash NEXT reagent; type: cell-based
# Description: (§1) The stock organisms were thawed and subbed prior to beginning the MBC test. Molds were subbed to SDA plates one week before, and the bacteria were subbed to TAT agar plates 24 hours prior to the start of the test. All plates were incubated at 32 degrees C.
# (§2) For the molds, each organism was inoculated into 40 ml sterile saline in a centrifuge tube to create a density of MacFarland #5. Two serial dilutions of 1:100 were then made, resulting in 10^−2 and 10^−4 concentrations. Each dilution was vortexed before it was sampled, and sterile Eppendorf pipette tips were used to make each transfer. The 10^−4 dilution was spiral plated to yield the initial inoculum concentration.
# (§3) MBC trays were set up with the prepared test reagent. Using a Matrix pipettor, 100 μl aliquots of reagent were distributed into the wells, diluting the amount of preservative from 100% to 10% increments, using unpreserved reagent as the diluent. In one row, 100% non-preserved reagent acted as a positive control and served as a benchmark for a full mat of growth. In well #12H, 100 μl unpreserved reagent was pipetted, and this well was not inoculated with organisms, as it served as the negative control. Once all of the trays were prepared, the prepared bacteria/mold suspensions were poured into the MBC inoculating trays. These were placed onto the reagent trays, and 0.01 ml inoculum was introduced into the 100 μl of reagent in each well.
# (§4) This was done by dipping a sterile cotton swab into each well, and absorbing all of the liquid in the well. The swab was rolled onto a TAT agar plate ensuring that the entire swab touches the agar. Plates ware incubated at 32 degrees C. for 48 hours to 7 days, depending on the organism. Observations for growth were performed by a scoring matrix using + for a full mat, +/− for some growth, a numerical value for an actual colony count, and—for no growth.
# (§5) Below are tables that contain the data obtained in Example 1. The MBC test is scored by (+) indicating a full grown mat of organisms, equivalent to the organisms in the unpreserved reagent. (+/−) indicates there is some kill evident disturbing that mat or bringing the quantities down to an almost countable level. An actual number is the actual number of colonies growing at that concentration of preservative. (−) indicates no growth found. The MBC trays were stored at room temperature for the entire test.
# (§6) The materials and methods and analysis of the MBC test were the same as in Example 1.
# [2] = tested on: Ralstonia pickettii (AU); type: cell-based
# Description: as §1
# as §2, with “Each bacterial” for “For the molds, each”, “#1.” for “#5.”
# as §3, §4, §5, §6
substance,measurement,setting,value
gentamicin,MBC test growth score,"[1]; 10% preservative, 8 hour",+
same,MBC test growth score,"[1]; 10% preservative, 24 hour",+
same,MBC test growth score,"[1]; 10% preservative, 48 hour",+/−
same,MBC test growth score,"[1]; 10% preservative, 72 hour",+/−
same,MBC test growth score,"[1]; 10% preservative, 7 day",+/−
same,MBC test growth score,"[1]; 10% preservative, 14 day",+/−
same,MBC test growth score,"[1]; 20% preservative, 8 hour",+
same,MBC test growth score,"[1]; 20% preservative, 24 hour",+
same,MBC test growth score,"[1]; 20% preservative, 48 hour",+/−
same,MBC test growth score,"[1]; 20% preservative, 72 hour",+/−
same,MBC test growth score,"[1]; 20% preservative, 7 day",+/−
same,MBC test growth score,"[1]; 20% preservative, 14 day",+/−
same,MBC test growth score,"[1]; 30% preservative, 8 hour",+
same,MBC test growth score,"[1]; 30% preservative, 24 hour",+
same,MBC test growth score,"[1]; 30% preservative, 48 hour",+/−
same,MBC test growth score,"[1]; 30% preservative, 72 hour",+/−
same,MBC test growth score,"[1]; 30% preservative, 7 day",+/−
same,MBC test growth score,"[1]; 30% preservative, 14 day",36
same,MBC test growth score,"[1]; 40% preservative, 8 hour",+
same,MBC test growth score,"[1]; 40% preservative, 24 hour",+
same,MBC test growth score,"[1]; 40% preservative, 48 hour",+/−
same,MBC test growth score,"[1]; 40% preservative, 72 hour",+/−
same,MBC test growth score,"[1]; 40% preservative, 7 day",+/−
same,MBC test growth score,"[1]; 40% preservative, 14 day",35
same,MBC test growth score,"[1]; 50% preservative, 8 hour",+
same,MBC test growth score,"[1]; 50% preservative, 24 hour",+
same,MBC test growth score,"[1]; 50% preservative, 48 hour",+/−
same,MBC test growth score,"[1]; 50% preservative, 72 hour",+/−
same,MBC test growth score,"[1]; 50% preservative, 7 day",29
same,MBC test growth score,"[1]; 50% preservative, 14 day",28
same,MBC test growth score,"[1]; 60% preservative, 8 hour",+
same,MBC test growth score,"[1]; 60% preservative, 24 hour",+
same,MBC test growth score,"[1]; 60% preservative, 48 hour",+/−
same,MBC test growth score,"[1]; 60% preservative, 72 hour",+/−
same,MBC test growth score,"[1]; 60% preservative, 7 day",25
same,MBC test growth score,"[1]; 60% preservative, 14 day",26
same,MBC test growth score,"[1]; 70% preservative, 8 hour",+
same,MBC test growth score,"[1]; 70% preservative, 24 hour",+
same,MBC test growth score,"[1]; 70% preservative, 48 hour",+/−
same,MBC test growth score,"[1]; 70% preservative, 72 hour",+/−
same,MBC test growth score,"[1]; 70% preservative, 7 day",21
same,MBC test growth score,"[1]; 70% preservative, 14 day",20
same,MBC test growth score,"[1]; 80% preservative, 8 hour",+
same,MBC test growth score,"[1]; 80% preservative, 24 hour",+
same,MBC test growth score,"[1]; 80% preservative, 48 hour",+/−
same,MBC test growth score,"[1]; 80% preservative, 72 hour",+/−
same,MBC test growth score,"[1]; 80% preservative, 7 day",16
same,MBC test growth score,"[1]; 80% preservative, 14 day",14
same,MBC test growth score,"[1]; 90% preservative, 8 hour",+
same,MBC test growth score,"[1]; 90% preservative, 24 hour",+
same,MBC test growth score,"[1]; 90% preservative, 48 hour",+/−
same,MBC test growth score,"[1]; 90% preservative, 72 hour",22
same,MBC test growth score,"[1]; 90% preservative, 7 day",10
same,MBC test growth score,"[1]; 90% preservative, 14 day",9
same,MBC test growth score,"[1]; 100% preservative, 8 hour",+
same,MBC test growth score,"[1]; 100% preservative, 24 hour",+
same,MBC test growth score,"[1]; 100% preservative, 48 hour",+/−
same,MBC test growth score,"[1]; 100% preservative, 72 hour",18
same,MBC test growth score,"[1]; 100% preservative, 7 day",5
same,MBC test growth score,"[1]; 100% preservative, 14 day",4
same,MBC test growth score,"[2]; 10% preservative, 8 hour",−
same,MBC test growth score,"[2]; 10% preservative, 24 hour",−
same,MBC test growth score,"[2]; 10% preservative, 48 hour",−
same,MBC test growth score,"[2]; 10% preservative, 72 hour",−
same,MBC test growth score,"[2]; 20% preservative, 8 hour",−
same,MBC test growth score,"[2]; 20% preservative, 24 hour",−
same,MBC test growth score,"[2]; 20% preservative, 48 hour",−
same,MBC test growth score,"[2]; 20% preservative, 72 hour",−
same,MBC test growth score,"[2]; 30% preservative, 8 hour",−
same,MBC test growth score,"[2]; 30% preservative, 24 hour",−
same,MBC test growth score,"[2]; 30% preservative, 48 hour",−
same,MBC test growth score,"[2]; 30% preservative, 72 hour",−
same,MBC test growth score,"[2]; 40% preservative, 8 hour",−
same,MBC test growth score,"[2]; 40% preservative, 24 hour",−
same,MBC test growth score,"[2]; 40% preservative, 48 hour",−
same,MBC test growth score,"[2]; 40% preservative, 72 hour",−
same,MBC test growth score,"[2]; 50% preservative, 8 hour",−
same,MBC test growth score,"[2]; 50% preservative, 24 hour",−
same,MBC test growth score,"[2]; 50% preservative, 48 hour",−
same,MBC test growth score,"[2]; 50% preservative, 72 hour",−
same,MBC test growth score,"[2]; 60% preservative, 8 hour",−
same,MBC test growth score,"[2]; 60% preservative, 24 hour",−
same,MBC test growth score,"[2]; 60% preservative, 48 hour",−
same,MBC test growth score,"[2]; 60% preservative, 72 hour",−
same,MBC test growth score,"[2]; 70% preservative, 8 hour",−
same,MBC test growth score,"[2]; 70% preservative, 24 hour",−
same,MBC test growth score,"[2]; 70% preservative, 48 hour",−
same,MBC test growth score,"[2]; 70% preservative, 72 hour",−
same,MBC test growth score,"[2]; 80% preservative, 8 hour",−
same,MBC test growth score,"[2]; 80% preservative, 24 hour",−
same,MBC test growth score,"[2]; 80% preservative, 48 hour",−
same,MBC test growth score,"[2]; 80% preservative, 72 hour",−
same,MBC test growth score,"[2]; 90% preservative, 8 hour",−
same,MBC test growth score,"[2]; 90% preservative, 24 hour",−
same,MBC test growth score,"[2]; 90% preservative, 48 hour",−
same,MBC test growth score,"[2]; 90% preservative, 72 hour",−
same,MBC test growth score,"[2]; 100% preservative, 8 hour",−
same,MBC test growth score,"[2]; 100% preservative, 24 hour",−
same,MBC test growth score,"[2]; 100% preservative, 48 hour",−
same,MBC test growth score,"[2]; 100% preservative, 72 hour",−
